B1: heparin binding-EGF (protein, UniProt Q99075 63-148, looked up)
Heparin-binding EGF-like …: DLQEADLDLLRVTLSSKPQALATPNKEEHGKRKKKGKGLGKKRDPCLRKYKDFCIHGECKYVKELRAPSCICHPGYHGERCHGLSL
B2: betacellulin (protein, UniProt P35070 32-111, looked up)
Betacellulin: DGNSTRSPETNGLLCGDPEENCAATTTQSKRKGHFSRCPKQYKHYCIKGRCRFVVAEQTPSCVCDEGYIGARCERVDLFY

Experiments:
Assay type in all cases: cell-based, Mus musculus
primary white adipocytes = experiment: Thermogenic gene expression; conditions: for Ucp1 expression: primary adipocytes treated with the indicated proteins 1 μg/ml for 24 hr, n = 3 (Fig. 2e)
primary adipocytes = experiment: Cellular oxygen consumption rate; conditions: primary white adipocytes, NE 100 nM, PTHrP or PTH 100 ng/ml, 24 hr, n = 4
UCP1 protein = UCP1 protein levels by western blotting in primary white and brown adipocytes; conditions: NE 100 nM, PTHrP or PTH 100 ng/ml each, 24 hr
primary brown adipocytes = experiment: Thermogenic gene expression; conditions: peptides 100 ng/ml for 2 hr, RT-qPCR, n = 3 (Extended Data Fig. 3d)

Molecule	O2 consumption, including basal, uncoupled and maximal respiration (primary adipocytes)	UCP1 protein levels (UCP1 protein)	Ucp1 expression (primary white adipocytes; RT-qPCR)	also measured
C=CC(=O)Nc1ccc2ncnc(Nc3ccc(OCc4cccc(F)c4)c(Cl)c3)c2c1 [AST-1306]				browning activity present in LLC cell-conditioned medium (primary white adipocytes; AST-1306 1 μM and LLC cell-conditioned medium for 24 hr, primary adipocytes, n = 3 (Fig. 3a)): largely unaffected; Ucp1 mRNA induction by BTC, EREG or HBEGF (primary white adipocytes; AST-1306 1 μM with BTC, EREG or HBEGF 100 ng/ml for 24 hr, primary adipocytes, n = 3 (Extended Data Fig. 3c)): completely blocked Ucp1 mRNA induction
NC[C@H](O)c1ccc(O)c(O)c1 [NE, norepinephrine]	significantly raised O2 consumption	increased UCP1 protein comparably		
PTH: Synthetic parathyroid hormone 1-34 peptide, purchased from Bachem (SVSEIQLMHNLGKHLNSMERVEWLRKKLQDVHNF; Parathyroid hormone; UniProt P01270 32-65, looked up, fragment)	significantly raised O2 consumption	increased UCP1 protein comparably		thermogenic gene expression (primary white adipocytes; primary white adipocytes, peptides 100 ng/ml for 2 hr, RT-qPCR, n = 3 (Fig. 3b)): stimulated thermogenic gene expression; thermogenic gene expression (primary brown adipocytes): stimulated thermogenic gene expression
epiregulin [EREG]			induced Ucp1 expression	
B1			induced Ucp1 expression	
B2			induced Ucp1 expression	

Source: PMC4224962 (Nature, 2014)
